US10161932B2, “Azetidine-substituted fluorescent compounds” (HOWARD HUGHES MEDICAL INSTITUTE, priority 2014, dated 2018)

Assays:
HaloTag = test: Labeling kinetics and brightness of HaloTag ligand conjugates in vitro; type: biochemical; details: compared with TMR and Cy3 HaloTag ligands
Text: (§1) The labeling kinetics of TMR and JF549 HaloTag ligands were compared with a novel Cy3 HaloTag ligand while measuring the brightness and photon yield of the resulting conjugates.

[1] = test system: HaloTag-histone 2B (H2B) fusion; test: Live-cell confocal labeling of HaloTag-H2B; type: cell-based; details: live cells expressing HaloTag-H2B
Experimental: as §1
(§2) HeLa cells (ATCC) and U2OS cells (ATCC) were cultured in Dulbecco's modified eagle medium (DMEM; Life Technologies) supplemented with 10% v/v fetal bovine serum (FBS; Life Technologies), 1 mM GlutaMax (Life Technologies), and 1 mM sodium pyruvate (Sigma) and maintained at 37° C. in a humidified 5% v/v CO2 environment. These cell lines undergo regular mycoplasma testing by the Janelia Cell Culture Facility. Cells were transfected with HaloTag-H2B, HaloTag-tubulin, SnapTag-TetR, or SnapTag-H2B using an Amaxa Nucleofector (Lonza). […]
(§3) Three separate systems were used to acquire microscopic images. […] Other live-cell single super-resolution imaging experiments were recorded on a custom-built three-camera RAMM frame (ASI) microscope using an 1.4 NA PLAPON 60×OSC objective (Olympus), and a 300 mm focal length tube lens (LAO-300.0, Melles Griot), resulting in 100× overall magnification. […] Fluorescence was detected with a back-illuminated EMCCD camera (Andor Technology, Ixon Ultra DU-897U-CSO-EXF, 17 MHz EM amplifier), which was controlled through Micro-Manager (1.4.17).

SnapTag-H2B = test: Nuclear labeling of live HeLa cells expressing SnapTag-H2B; type: cell-based
Text: In this Example, an azetidinyl-coumarin label was used for cellular imaging. The performance of a commercial SnapTag ligand (i.e., Snap Cell 430) was compared to a novel azetidinyl derivative (Example 52), which was synthesized from a 7-azetidinyl-coumarin-3-carboxylic acid. Under identical transient transfection, labeling, and imaging conditions, H2B-SnapTag-expressing cells were stained with the red fluorescent nuclear stain DRAQ5 and either Snap Cell 430 or the azetidinyl ligand. Using the DRAQ5 staining as a spatial reference (FIGS. 26 and 27) the intensity of individual nuclei labeled by either SnapTag ligand was measured.
as §2, with “Facility.” for “Facility. Cells were transfected with HaloTag-H2B, HaloTag-tubulin, SnapTag-TetR, or SnapTag-H2B using an Amaxa Nucleofector (Lonza).”
Three separate systems were used to acquire microscopic images. […] Other live-cell single super-resolution imaging experiments were recorded on a custom-built three-camera RAMM frame (ASI) microscope using an 1.4 NA PLAPON 60×OSC objective (Olympus), and a 300 mm focal length tube lens (LAO-300.0, Melles Griot), resulting in 100× overall magnification. […]

[2] = Absorption and fluorescence spectroscopy of dyes; type: physicochemical; details: Table 2; 10 mM HEPES pH 7.3
Experimental: Phosphate buffered saline (PBS) was at pH 7.4 unless otherwise noted.
Spectroscopy was performed using 1-cm path length, 3.5-mL quartz cuvettes from Starna Cells or 1-cm path length, 1.0-mL quartz microcuvettes from Hellma. All measurements were taken at ambient temperature (22±2° C.) in 10 mM HEPES, pH 7.3 buffer unless otherwise noted. Absorption spectra were recorded on a Cary Model 100 spectrometer (Varian); reported values for extinction coefficients (ε) are averages (n=3). Fluorescence spectra were recorded on a Cary Eclipse fluorometer (Varian). Normalized spectra are shown for clarity.

[3] = Quantum yield measurement (Quantaurus-QY spectrometer); type: physicochemical
Experimental: All reported quantum yield values were measured in under identical conditions using a Quantaurus-QY spectrometer (C11374, Hamamatsu). Measurements were carried out using dilute samples (A<0.1) and self-absorption corrections were performed using the instrument software. Reported values are averages (n=3).

[4] = Fluorescence lifetime measurement
Experimental: For fluorescence lifetime measurements, a pulse picker (Model 350-160, ConOptics) was placed in the laser beam to reduce the pulse frequency from 80 MHz to 20 MHz. Samples (2 μM dye diluted in 50 mM HEPES, pH 7.2, H2O, or CH3OH) were excited at 830 nm laser wavelength and 6 mW laser power. The emitted light was collected by the fast-timing APD and fed to the single-photon counting board (TimeHarp200; PicoQuant). Timing pulses were obtained from a PIN diode (DET01CFC; ThorLabs) monitoring the 20 MHz pulse train. The temporal impulse response of the system was determined by second harmonic generation of laser pulses using a thin nonlinear crystal in place of a dye sample. The lifetime decay data was fit to a single exponential decay function using a custom MATLAB program.

HaloTag protein = details: ligand 5 μM, 10 mM HEPES pH 7.3 with 0.1 mg·mL^−1 CHAPS
Experimental: To measure fluorescence of HaloTag ligands upon reaction with HaloTag protein, absorbance measurements were performed in 1 mL quartz cuvettes. HaloTag protein was used as a 100 μM solution in 75 mM NaCl, 50 mM TRIS. HCl, pH 7.4 with 50% v/v glycerol (TBS-glycerol). HaloTag ligands of JF646 and SiTMR (5 μM) were dissolved in 10 mM HEPES, pH 7.3 containing 0.1 mg·mL^−1 CHAPS. An aliquot of HaloTag protein (1.5 equiv) or an equivalent volume of TBS-glycerol blank was added and the resulting mixture was incubated until consistent absorbance signal was observed (˜30 min). […] Absorbance scans are averages (n=2).

HaloTag-H2B = test: No wash wide-field imaging of live HeLa cells expressing HaloTag-H2B; type: cell-based; details: ligand 100 nM
Experimental: Next, “no wash” imaging experiments were performed using cells expressing the HaloTag-H2B fusion.
as §2, with “(Lonza). Before the imaging experiments, transfected cells were transferred onto a No. 1 coverslip (Warner Instruments) that was cleaned by Piranha solution (3:1 v/v mixture of concentrated H2SO4 and 30% v/v hydrogen peroxide).” for “(Lonza).”
as §3

O=C(NCCOCCOCCCCCCCl)c1ccc(C(=O)[O-])c(-c2c3ccc(=[N+]4CCC4)cc-3oc3cc(N4CCC4)ccc23)c1 [Example 21, 4-((2-(2-((6-Chlorohexyl)oxy)ethoxy)ethyl)carbamoyl)-2-(3,6-di(azetidin-1-yl)xanthylium-9-yl)benzoate]
labeling kinetics (HaloTag): comparable labeling kinetics to the TMR ligand
live-cell labeling / cell permeability [1]: efficiently crossed the membrane of live cells and selectively labeled the HaloTag protein

Nc1nc(OCc2ccc(CNC(=O)c3cc4ccc(N5CCC5)cc4oc3=O)cc2)c2nc[nH]c2n1 [Example 52, N-(4-(((2-Amino-9H-purin-6-yl)oxy)methyl)benzyl)-7-(azetidin-1-yl)-2-oxo-2H-chromene-3-carboxamide]
nuclear fluorescence intensity (SnapTag-H2B; DRAQ5 reference): brighter nuclear labeling
median nuclear intensity relative to cells labeled with the commercial compound (SnapTag-H2B; n=50): five-fold higher

O=C1OC2(c3ccc(N4CCCCC4)cc3Oc3cc(N4CCCCC4)ccc32)c2ccccc21 [piperidine derivative, reference compound]
ε [2]: 80,000 M^−1 cm^−1
λem [2]: 586 nm
λmax [2]: 560 nm
ϕ (quantum yield) [3]: 0.10
ϕ ([3]; pH 7.3): 0.10
τ (fluorescence lifetime) [4]: 0.6 ns
τ ([4]; Table 2, 10 mM HEPES pH 7.3 per table footnote): 0.59 ns

C[Si]1(C)C2=CC(=[N+]3CCC3)C=CC2=C(c2cc(C(=O)NCCOCCOCCCCCCCl)ccc2C(=O)[O-])c2ccc(N3CCC3)cc21 [Example 35, 4-((2-(2-((6-Chlorohexyl)oxy)ethoxy)ethyl)carbamoyl)-2-(3,7-di(azetidin-1-yl)-5,5-dimethyldibenzo[b,e]silin-10-ylium-10(5H)-yl)benzoate]
increase in absorbance upon reaction with excess HaloTag protein (HaloTag protein): 21 fold
nonspecific staining / background (HaloTag-H2B): lower nonspecific staining
